Where two headings read alike, the source gives them in different places.
Legend:
[1] = test system: patients with osteoarthritis of the knee; conditions: 1000 µg (14.5 µg/kg) twice daily orally for 12 weeks; trial discontinued; cited from earlier work
[2] = test system: human patients; conditions: cited from earlier work; for Activity: Human
[3] = test system: dogs with osteoarthritis (OA); experiment: multicentric, non-comparative, randomized proof of concept study, 90 days oral treatment of dogs with osteoarthritis; assay type: in vivo, dog
[4] = test system: dogs with osteoarthritis (OA); experiment: as above; assay type: in vivo, dog; conditions: for Activity: Dog
Method: This was a multicentric, non-comparative, randomized proof of concept study in which 15 dogs with osteoarthritis (OA) were treated with piclidenosone (VBX1000) for 90 days.
[…] Two intermediate visits were included for clinical examination and for calculating OA scores.
The primary objective of this study was to assess the efficacy of piclidenosone to reduce OA symptoms severity after 90 days of treatment. For that purpose, OA symptoms and motility were scored by the owner using Liverpool Osteoarthritis in Dogs (LOAD) questionnaire at Day-0, Day-30, Day-60 and Day-90. […]
• Inclusion criteria • ∘ The owner approved and signed the informed consent form prior to the participation of his/her dog in the study; • ∘ Dog older than 18 months; • ∘ Dog with a Body Condition score lower than 8 (on a 9 point-scale); • ∘ Dog with a symptomatic unifocal or multifocal osteoarthritis, characterized by the presence of osteophyte on at least one site on radiographic views; • ∘ LOAD mobility total score of ≥ 11 at visit V2 (Day 0). • Exclusion criteria • ∘ Animals intended for breeding or known to be pregnant or lactating; • ∘ Dog with severe OA which requires concomitant treatment; • ∘ Presence of complete cranial cruciate ligament rupture; • ∘ Breeds at risk of MDR1 gene mutation (MDR1 genetic test required before screening of a dog from known affected breed: Collie, Border Collie, Australian and English Shepherd, German Shepherd, Long-Haired Whippet, Shetland Sheepdog); • ∘ History of orthopaedic surgery including complete cranial cruciate ligament rupture surgically treated with Tibial Tuberosity Advancement (TTA) or Tibial Plateau Leveling Osteotomy (TPLO) or elbow debridement within 3 months prior to inclusion; • ∘ Presence of musculoskeletal lesions (e.g., glycogenosis, primary muscular dystrophy) or untreated neoplasia prior to inclusion; • ∘ Presence of concurrent systemic disease such as neurologic, hepatic, renal or cardiac disease; • ∘ Dog under physical therapy (including acupuncture) for orthopaedic indication unless a 1-week wash-out period is applied prior to visit V1 (between D-21 and D-14); • ∘ Dog treated with methotrexate; • ∘ Dog treated with nonsteroidal anti-inflammatory drugs unless a 2-weeks wash-out period is applied prior to visit V1 (between D-21 and D-14); • ∘ Dog that received mavacoxib or enflicoxib within 3 months prior to visit V1 (between D-21 and D-14); • ∘ Dog treated with short-acting corticosteroids (i.e., hydrocortisone) unless a 2-weeks wash-out period is applied prior to visit V1 (between D-21 and D-14); • ∘ Dog treated with intermediate-acting corticosteroids (i.e., prednisone, prednisolone, methylprednisolone) unless a 4-weeks wash-out period is applied prior to visit V1 (between D-21 and D-14); • ∘ Dog treated with long-acting corticosteroids (i.e., dexamethasone) unless a 12-weeks wash-out period is applied prior to visit V1 (between D-21 and D-14); • ∘ Dog treated with any intra-articular injection in the joint under study within 2 months prior to visit V1 (between D-21 and D-14); • ∘ Dog treated with a subcutaneous injection of bedinvetmab unless a 4-week wash-out periods is applied prior to visit V1 (between D-21 and D-14); • ∘ Dog treated with OA modifying diet and/or food supplements (i.e., glycosaminoglycans, glucosamine and chondroitin sulphate or other) unless its administration has been regular during the month preceding visit V1 (between D-21 and D-14) and will be continued during the study duration; • ∘ Dog unable to walk on a leash. […]

[5] = test system: monoidoacetate (MIA) experimental rat models; conditions: cited from earlier work
[6] = 100 µg/kg bid, 90 days vs baseline
[7] = oral, 100 µg/kg body weight twice a day

## CNC(=O)[C@H]1O[C@@H](n2cnc3c(NCc4cccc(I)c4)ncnc32)[C@H](O)[C@@H]1O [piclidenoson, 1-Deoxy-1-[6-[[(3-iodophenyl)methyl]amino]-9H-purin-9-yl]-N-methyl-β-D-ribofuranuronamide]
[1]
  efficacy: lack of efficacy
[2]; Bid Dose 2000 µg (29 µg/kg)
  Activity: Yes
[2]; Bid Dose 4000 µg (57 µg/kg)
  Activity: Yes
[2]; from clinical Phase 2 trials, assuming body weight of 70 kg
  Active Dose in Human: 0.029 mg/kg
[3]; [6]
  proportion of patient with low NRS2 (pain score): non-significant increase
[3]; 500 µg/kg bid oral, Day-90, N=9, baseline 22.9±7.2 at Day-0, p<0.01, primary endpoint met
  LOAD score: 14.9±10.6
[3]; 500 µg/kg bid, 90 days vs baseline, p<0.05 Fisher exact test
  proportion of patients with low scores, NRS2 (pain score): reached statistical significance
[3]; 500 µg/kg bid, 90 days vs baseline, statistical significance
  proportion of patients with low scores, NRS1 (lameness score): not for NRS1
[4]; 100 µg/kg bid group, 90-day treatment period
  pain score (Visual Analog Score or VAS): not significantly improved
[4]; [6]
  proportion of patient with low NRS1 (lameness score): non-significant increase
[4]; 100 µg/kg twice a day orally for 90 days
  evidence for efficacy in the treatment of osteoarthritis in dogs: do not provide evidence for efficacy
[4]; 500 µg/kg bid group as compared to 100 µg/kg bid, decrease in LOAD score ≥4, Day-90 vs inclusion
  proportion of patient experiencing clinically meaningful improvement of LOAD score: higher
[4]; 500 µg/kg bid group, statistical significance from Day-60 up to end of treatment
  pain score (Visual Analog Score or VAS): significant decrease
[4]; 500 µg/kg bid, after 90 days
  change in LOAD score vs that obtained after ligament surgery in dogs with ligament rupture: comparable
[4]; Bid Dose 100 µg/kg
  Activity: No
[4]; Bid Dose 500 µg/kg
  Activity: Yes
[4]; end of treatment period, 500 µg/kg bid group as compared to 100 µg/kg bid group
  proportion of patients showing VAS improvement (Δ≤-1): superior
[4]; group 1, 100 µg/kg bid, observed at Day-30, totally disappeared at Day-60 and Day-90
  temporal evolution of mean LOAD score: transient decrease
[4]; group 2, 500 µg/kg bid, statistical significance from Day-60 to end of treatment
  temporal evolution of mean LOAD score: time-dependent decrease
[4]; proof-of-concept trial in dog with osteoarthritis, bid
  Active Dose in dog: 0.5 mg/kg
[4]; repeated oral administration at dose ≥ 500 µg/kg bid
  clinical symptoms of osteoarthritis in dog: improves clinical symptoms
[4]; throughout the study, 100 and 500 µg/kg bid for 90 days
  tolerance: well tolerated with no treatment related SAE and no death
[5]; Rat, Bid Dose 100 µg/kg
  Activity: Yes
[5]; [7]
  NF-kappaB signaling pathway: deregulated
  apoptosis of inflammatory cells: induced apoptosis
  cartilage protection: cartilage protective agent
